# Measured values from patent US20230407243A1, “GENETIC PLATFORM TO INVESTIGATE THE FUNCTIONS OF BACTERIAL DRUG EFFLUX PUMPS” (priority 2022, published 2023).
# Like-named read-outs stand apart in the source and are kept apart here.
# What was measured:
# Format in all cases: cell-based, Escherichia coli
# [1] = system: EKO-35 pitA (pCA24N); experiment: MIC of strains harboring ASKA plasmids; conditions: 0.1 mM IPTG; for MIC, EKO-35 pitA (pCA24N), Chlor −: no plasmid selection
# [2] = system: EKO-35 wcaC (pCA24N); experiment: MIC of strains harboring ASKA plasmids; conditions: 0.1 mM IPTG; for MIC, EKO-35 wcaC (pCA24N), Chlor +: 4 μg/mL chloramphenicol selection; for MIC, EKO-35 wcaC (pCA24N), Chlor −: no plasmid selection; for MIC: EKO-35 wcaC
# [3] = system: K-12 (empty pCA24N); experiment: MIC of strains harboring ASKA plasmids; conditions: 0.1 mM IPTG; for MIC, K-12 (empty pCA24N), Chlor +: 25 μg/mL chloramphenicol selection; for MIC, K-12 (empty pCA24N), Chlor −: no plasmid selection; for MIC: K-12 empty pCA24N
# [4] = system: EKO-35 gyrB (pCA24N); experiment: MIC of strains harboring ASKA plasmids; conditions: 0.1 mM IPTG; for MIC, EKO-35 gyrB (pCA24N), Chlor +: 4 μg/mL chloramphenicol selection; for MIC, EKO-35 gyrB (pCA24N), Chlor −: no plasmid selection; for MIC: EKO-35 gyrB
# [5] = system: EKO-35 acrBD408A; conditions: EKO-35 acrBD408A
# Summary of the method: (§1)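 Checkerboard broth microdilution in MHB II followed CLSI guidelines, with MIC defined as the lowest concentration giving no growth by OD600. FICI was calculated as CA/MICA + CB/MICB for PAβN or NMP combined with an antibiotic, with <0.5 classed as synergistic. Efflux-attributed fold resistance is the strain MIC divided by the EKO-35 MIC.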
# [6] = system: EKO-35
# Summary of the method: as §1
# [7] = system: wild-type E. coli K-12; conditions: K-12
# Summary of the method: as §1
# [8] = system: ΔtolC; conditions: ΔtolC
# Summary of the method: as §1
# [9] = system: ΔtolC-Pore; conditions: ΔtolC Pore
# Summary of the method: as §1
# [10] = system: EKO-35 porinated strain expressing acrB; experiment: Checkerboard synergy (FICI), porinated strain; conditions: EKO-35 acrB Pore
# Summary of the method: as §1
# [11] = system: EKO-35-Pore acrBD408A (functionally inactive AcrB variant); experiment: Checkerboard synergy (FICI), porinated strain; conditions: EKO-35 acrBD408A Pore
# Summary of the method: as §1
# [12] = system: EKO-35 strains producing different efflux pumps (EKO-35 araC::X); experiment: Checkerboard synergy (FICI) of PAβN or NMP with antibiotics; conditions: for Effect / FICI: PAβN + antibiotic; for MICb Alone: antibiotic alone (PAβN checkerboard); for MICb Combined: antibiotic in combination with PAβN
# Summary of the method: as §1
# [13] = antibiotic alone (PAβN checkerboard)
# [14] = antibiotic in combination with PAβN
compound,measurement,setting,value
N#Cc1ccc(-c2c(NC(=O)C(Cl)Cl)oc(-c3cccs3)c2C#N)cc1 [compound 2],"MIC, EKO-35 pitA (pCA24N), Chlor −",[1],>5 μg/mL
same,"MIC, EKO-35 wcaC (pCA24N), Chlor +",[2],>5 μg/mL
same,"MIC, EKO-35 wcaC (pCA24N), Chlor −",[2],>5 μg/mL
same,"MIC, K-12 (empty pCA24N), Chlor +",[3],>5 μg/mL
same,"MIC, K-12 (empty pCA24N), Chlor −",[3],>5 μg/mL
same,"MIC, EKO-35 gyrB (pCA24N), Chlor +",[4],>5 μg/mL
same,"MIC, EKO-35 gyrB (pCA24N), Chlor −",[4],>5 μg/mL
Cn1cc(Br)c(-c2cccc(NC(=O)Nc3ccc(OC(F)(F)F)cc3)c2)n1 [compound 14],"MIC, EKO-35 pitA (pCA24N), Chlor −",[1],>5 μg/mL
same,"MIC, EKO-35 wcaC (pCA24N), Chlor +",[2],>5 μg/mL
same,"MIC, EKO-35 wcaC (pCA24N), Chlor −",[2],>5 μg/mL
same,"MIC, K-12 (empty pCA24N), Chlor +",[3],>5 μg/mL
same,"MIC, K-12 (empty pCA24N), Chlor −",[3],>5 μg/mL
same,"MIC, EKO-35 gyrB (pCA24N), Chlor +",[4],>5 μg/mL
same,"MIC, EKO-35 gyrB (pCA24N), Chlor −",[4],>5 μg/mL
O=C(Nc1ccccc1C(=O)Nc1nnc(C(F)(F)F)s1)c1ccccc1Cl [compound 19],"MIC, EKO-35 pitA (pCA24N), Chlor −",[1],>5 μg/mL
same,"MIC, EKO-35 wcaC (pCA24N), Chlor +",[2],>5 μg/mL
same,"MIC, EKO-35 wcaC (pCA24N), Chlor −",[2],>5 μg/mL
same,"MIC, K-12 (empty pCA24N), Chlor +",[3],>5 μg/mL
same,"MIC, K-12 (empty pCA24N), Chlor −",[3],>5 μg/mL
same,"MIC, EKO-35 gyrB (pCA24N), Chlor +",[4],>5 μg/mL
same,"MIC, EKO-35 gyrB (pCA24N), Chlor −",[4],>5 μg/mL
CO[C@@H]1[C@@H](OC(N)=O)[C@@H](O)[C@H](Oc2ccc3c(O)c(NC(=O)c4ccc(O)c(CC=C(C)C)c4)c(=O)oc3c2C)OC1(C)C [novobiocin],Effect,[5]; PAβN + antibiotic,Synergistic
same,FICI,[5]; PAβN + antibiotic,0.375
same,MICb Alone,[5]; [13],8 µg/mL
same,MICb Combined,[5]; [14],2 µg/mL
same,Effect,"[6]; EKO-35, PAβN + antibiotic",Synergistic
same,FICI,"[6]; EKO-35, PAβN + antibiotic",0.375
same,MICb Alone,"[6]; EKO-35, antibiotic alone (PAβN checkerboard)",4 µg/mL
same,MICb Combined,"[6]; EKO-35, antibiotic in combination with PAβN",1 µg/mL
same,interaction of PAβN in combination with the labelled antibiotic (FICI),"[6]; efflux-deficient strains EKO-35, EKO-35 acrBD408A, ΔtolC",synergized
same,Effect,[7]; PAβN + antibiotic,Synergistic
same,FICI,[7]; PAβN + antibiotic,0.188
same,MICb Alone,[7]; [13],128 µg/mL
same,MICb Combined,[7]; [14],8 µg/mL
same,Effect,[8]; PAβN + antibiotic,Synergistic
same,FICI,[8]; PAβN + antibiotic,0.500
same,MICb Alone,[8]; [13],2 µg/mL
same,MICb Combined,[8]; [14],0.5 µg/mL
same,Effect,[9]; PAβN + antibiotic,Additive
same,FICI,[9]; PAβN + antibiotic,0.740
same,MICb Alone,[9]; [13],0.25 µg/mL
same,MICb Combined,[9]; [14],0.06 µg/mL
same,MIC,[2]; Chlor + (4 μg/mL),1.56 µg/mL
same,MIC,"[3]; Escherichia coli, Chlor + (25 μg/mL chloramphenicol), read-out: MIC",200 µg/mL
same,Effect,[10]; PAβN + antibiotic,Synergistic
same,FICI,[10]; PAβN + antibiotic,0.094
same,MICb Alone,[10]; [13],512 µg/mL
same,MICb Combined,[10]; [14],16 µg/mL
same,Effect,[11]; PAβN + antibiotic,Additive
same,FICI,[11]; PAβN + antibiotic,0.750
same,MICb Alone,[11]; [13],1 µg/mL
same,MICb Combined,[11]; [14],0.25 µg/mL
same,effect of gyrB overexpression on resistance of EKO-35,[4]; ASKA plasmid,increased novobiocin resistance
same,MIC,"[4]; Escherichia coli, Chlor + (4 μg/mL), read-out: MIC",25 µg/mL
same,Effect,[12]; EKO-35 acrB,Synergistic
same,FICI,[12]; EKO-35 acrB,0.156
same,MICb Alone,[12]; EKO-35 acrB,1024 µg/mL
same,MICb Combined,[12]; EKO-35 acrB,32 µg/mL
same,Effect,[12]; EKO-35 acrD,Synergistic
same,FICI,[12]; EKO-35 acrD,0.313
same,MICb Alone,[12]; EKO-35 acrD,512 µg/mL
same,MICb Combined,[12]; EKO-35 acrD,32 µg/mL
benzalkonium chloride,MIC,"[1]; EKO-35 pitA, Chlor −",0.781 µg/mL
same,MIC,[2]; Chlor + (4 μg/mL),0.391 µg/mL
same,MIC,[2]; Chlor −,0.781 µg/mL
same,MIC,[3]; Chlor + (25 μg/mL chloramphenicol),25 µg/mL
same,MIC,[3]; Chlor −,25 µg/mL
same,MIC,[4]; Chlor + (4 μg/mL),0.781 µg/mL
same,MIC,[4]; Chlor −,0.781 µg/mL
